According to PubChem BioAssay (NCI):
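Tested at 5 concentrations; 48 h exposure; 96-well plates; endpoints linearly interpolated, else capped at highest concentration. At the GI50, growth is halved. TGI denotes the concentration required for complete inhibition of growth.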

Key:
Assay in all cases: inhibition of tumour cell growth, NCI panel, 48 h
A498 renal = tested on: A498 renal
LOX IMVI melanoma = tested on: LOX IMVI melanoma
MALME-3M melanoma = tested on: MALME-3M melanoma
NCI-H226 lung = tested on: NCI-H226 lung
NCI/ADR-RES ovarian = tested on: NCI/ADR-RES ovarian
SF-268 CNS = tested on: SF-268 CNS
SF-295 CNS = tested on: SF-295 CNS
SK-MEL-28 melanoma = tested on: SK-MEL-28 melanoma
SK-OV-3 ovarian = tested on: SK-OV-3 ovarian
UO-31 renal = tested on: UO-31 renal

Row | Compound | GI50 (A498 renal) [µM] | TGI (A498 renal) [µM] | GI50 (LOX IMVI melanoma) [µM] | TGI (LOX IMVI melanoma) [µM] | GI50 (MALME-3M melanoma) [µM] | TGI (MALME-3M melanoma) [µM] | GI50 (NCI-H226 lung) [µM] | TGI (NCI-H226 lung) [µM] | GI50 (NCI/ADR-RES ovarian) [µM] | TGI (NCI/ADR-RES ovarian) [µM] | GI50 (SF-268 CNS) [µM] | TGI (SF-268 CNS) [µM] | GI50 (SF-295 CNS) [µM] | TGI (SF-295 CNS) [µM] | GI50 (SK-MEL-28 melanoma) [µM] | TGI (SK-MEL-28 melanoma) [µM] | GI50 (SK-OV-3 ovarian) [µM] | TGI (SK-OV-3 ovarian) [µM] | GI50 (UO-31 renal) [µM] | TGI (UO-31 renal) [µM]
1 | Cc1cc(-c2nc(-c3ccc(OC(F)(F)F)cc3)no2)nn1Cc1ccnc(N2CCN(C3CC3)CC2)c1 | 0.482 | > 100 | 0.272 | > 45.6 | 4.77 | > 55.6 | 12.2 | > 100 | 0.726 | > 100 | > 42.7 | > 100 | < 0.01 | > 100 | 3.6 | > 40.2 | > 49.6 | > 100 | 4.4 | > 100
2 | COc1cccc(C2C3=C(COC3=O)N(CCO)c3cc4c(cc32)OCCO4)c1 (configuration not stated) | 0.0264 | 0.276 | 0.288 | > 50 | 49.1 | > 50 | 7.26 | > 50 | 0.137 | 0.727 | 0.355 | > 50 | 0.0389 |  | > 50 | > 50 | 0.128 | 4.28 | 0.268 | > 15.6
3 | C#COc1cccc(Nc2ncnc3ncc(NC(=O)CCl)cc23)c1 | > 62.5 | > 62.5 |  | > 28 | > 23.7 | > 38 | > 62.5 | > 62.5 | > 24.7 | > 62.5 | > 22.3 | > 62.5 | > 52.9 | > 62.5 | > 59.6 | > 62.5 | > 62.5 | > 62.5 | > 14 | > 33.2
4 | COc1cc2c3c(n(C)c(=O)c2cc1OC)-c1cc2c(cc1/C3=C\CCCBr)OCO2 | 26.3 | 68.9 | 42 | > 100 | 7.2 | > 45.4 | 77.5 | > 100 |  | > 100 | 16.1 | > 54.8 | 9.16 | 30.8 | > 100 | > 100 | 18.1 | 44.8 | > 49.7 | > 100
5 | CC(=O)OCC1OC(OC2=C(CC=C(Cl)Cl)C(=O)c3ccccc3C2=O)C(OC(C)=O)C(OC(C)=O)C1OC(C)=O (configuration not stated) | 3.32 | 20 | 1.71 | 3.56 | 2.66 | 5.83 | 15.6 | 50.5 | 4.23 | 51.9 | 2.75 | 8.03 | 16.3 | 31.4 | 3.93 | 12.8 | 15.1 | 28.7 | 1.44 | 3.37
6 | O=S1(=O)CS(=O)(=O)OCCCO1 |  | > 100 |  | > 100 |  | > 100 |  | > 100 |  | > 100 |  | > 100 |  | > 100 |  | > 100 |  | > 100 |  | > 100
7 | C/C(=C\CCc1ccoc1)CC/C=C(\C)CCCN1CCC(CO)CC1 | 1.96 | 5.96 | 1.81 | 3.47 | 1.79 | 3.52 | 6.16 | 22.3 | 3.69 | 14.6 | 5.65 | 19.4 | 2.28 | 5.41 | 1.89 | 4.03 | 6.94 | 20 | 3.85 | 16.7
8 | COc1ccc(Cc2cnc(NC(=O)c3sc4ccccc4c3Cl)s2)cc1 | 0.222 | 12.7 | 1.52 | > 100 | 0.81 | > 100 | 1.43 | > 100 | 0.342 | > 100 | 1.26 | > 100 | 0.383 | > 100 | 3.84 | > 100 | 0.619 | > 100 | 0.843 | > 100
